In brackets after ≈: the same amount, converted by molar mass. Counter-ions that a name gives are not always drawn. Like-named read-outs stand apart in the source and are kept apart here.

For this experiment, the system named is pathogenic bacteria. The experiment is described as follows: MIC by microdilution broth method (NCCLS M7-A4), in vitro antibacterial activity. It counts as cell-based. The protocol:
Minimal inhibitory concentration (MIC) has been an indicator of in vitro antibacterial activity widely used in the art. The in vitro antimicrobial activity of the compounds was determined by the microdilution broth method following the test method from the National Committee for Clinical Laboratory Standards (NCCLS). This method is described in the NCCLS Document M7-A4, Vol. 17, No. 2, “Methods for Dilution Antimicrobial Susceptibility Test for Bacteria that Grow Aerobically—Fourth Edition”, which is incorporated herein by reference.
In this method two-fold serial dilutions of drug in cation adjusted Mueller-Hinton broth are added to wells in microdilution trays. The test organisms are prepared by adjusting the turbidity of actively growing broth cultures so that the final concentration of test organism after it is added to the wells is approximately 5×10^4 CFU/well.
Following inoculation of the microdilution trays, the trays are incubated at 35° C. for 16-20 hours and then read. […] The amount of growth in the wells containing the test compound is compared with the amount of growth in the growth-control wells (no test compound) used in each tray. As set forth in Table 5, compounds of the present invention were tested against a variety of pathogenic bacteria resulting in a range of activities depending on the organism tested.
(In general: In broth dilution the organism is exposed to a series of concentrations in liquid medium.)

Where [1] appears, read: Staphylococcus aureus, Organism A: Staphylococcus aureus OC4172, read-out: MIC.
The mark [2] stands for this setting: Streptococcus pneumoniae, ATCC49619, Organism E: Streptococcus pneumoniae ATCC 49619, read-out: MIC.
[3] abbreviates: Streptococcus pneumoniae, Organism B: fluoroquinolone-resistant clinical isolate of Streptococcus pneumoniae (QRDR amino acid substitutions).
Where [4] appears, read: Streptococcus pneumoniae, Organism C: fluoroquinolone-resistant clinical isolate of Streptococcus pneumoniae (QRDR amino acid substitutions).
Where [5] appears, read: Streptococcus pneumoniae, Organism D: fluoroquinolone-resistant clinical isolate of Streptococcus pneumoniae (QRDR amino acid substitutions).

On to `NCC(F)=C1CCN(c2nc3c(cc2F)c(=O)c(C(=O)O)cn3C2CC2)CC1` [Compound 1, 7-[4-(2-Amino-1-fluoro-ethylidene)-piperidin-1-yl]-1-cyclopropyl-6-fluoro-4-oxo-1,4-dihydro-[1,8]naphthyridine-3-carboxylic acid], for which the MIC by setting is: under setting [1], 0.03 µg/mL (≈ 0.0768 µM); under setting [2], 0.12 µg/mL (≈ 0.307 µM); under setting [3], 2 µg/mL (≈ 5.12 µM); under setting [4], 0.5 µg/mL (≈ 1.28 µM); under setting [5], 1 µg/mL (≈ 2.56 µM).

For `CC(CN)=C1CCN(c2nc3c(cc2F)c(=O)c(C(=O)O)cn3C2CC2)CC1` [Compound 2, 7-[4-(2-Amino-1-methyl-ethylidene)-piperidin-1-yl]-1-cyclopropyl-6-fluoro-4-oxo-1,4-dihydro-[1,8]naphthyridine-3-carboxylic acid], the MIC under setting [1] was found to be 0.06 µg/mL (≈ 0.155 µM); the MIC under setting [2] stood at 0.12 µg/mL (≈ 0.311 µM); it took 0.25 µg/mL (≈ 0.647 µM) to inhibit growth under setting [3] (MIC); the MIC under setting [4] was 1 µg/mL (≈ 2.59 µM); the MIC under setting [5] is 1 µg/mL (≈ 2.59 µM).

For `NCC(Cl)=C1CCN(c2nc3c(cc2F)c(=O)c(C(=O)O)cn3C2CC2)CC1` [Compound 3, 7-[4-(2-Amino-1-chloro-ethylidene)-piperidin-1-yl]-1-cyclopropyl-6-fluoro-4-oxo-1,4-dihydro-[1,8]naphthyridine-3-carboxylic acid], the MIC is 0.06 µg/mL (≈ 0.147 µM) under setting [1]; 0.12 µg/mL (≈ 0.295 µM) under setting [2]; 1 µg/mL (≈ 2.46 µM) under setting [3]; 0.25 µg/mL (≈ 0.614 µM) under setting [4]; 1 µg/mL (≈ 2.46 µM) under setting [5].

With `NCC(F)=C1CCN(c2nc3c(cc2F)c(=O)c(C(=O)O)cn3-c2ccc(F)cc2F)CC1` [Compound 4, 7-[4-(2-Amino-1-fluoro-ethylidene)-piperidin-1-yl]-1-(2,4-difluoro-phenyl)-6-fluoro-4-oxo-1,4-dihydro-[1,8]naphthyridine-3-carboxylic acid], the MIC is, setting by setting: under setting [1], 0.06 µg/mL (≈ 0.13 µM); under setting [2], 0.25 µg/mL (≈ 0.541 µM); under setting [4], 1 µg/mL (≈ 2.16 µM); under setting [5], 2 µg/mL (≈ 4.33 µM).

Turning to `NCC(F)=C1CCN(c2cc3c(cc2F)c(=O)c(C(=O)O)cn3C2CC2)CC1` [Compound 5, 7-[4-(2-Amino-1-fluoro-ethylidene)-piperidin-1-yl]-l - cyclopropyl-6-fluoro-4-oxo-1,4-dihydro-quinoline-3-carboxylic acid trifluoroacetic acid salt], the MIC came out at 0.03 µg/mL under setting [1] and 1 µg/mL under setting [4].

`COc1c(N2CCC(=C(C)CN)CC2)c(F)cc2c(=O)c(C(=O)O)cn(C3CC3)c12` [Compound 6, 7-[4-(2-Amino-1-methyl-ethylidene)-piperidin-1-yl]-1-cyclopropyl-6-fluoro-8-methoxy-4-oxo-1,4-dihydro-quinoline-3-carboxylic acid]: the MIC came to 0.03 µg/mL (≈ 0.0722 µM) under setting [1], 0.06 µg/mL (≈ 0.144 µM) under setting [2] and 0.5 µg/mL (≈ 1.2 µM) under setting [4].

Take `COc1c(N2CCC(=C(Cl)CN)CC2)c(F)cc2c(=O)c(C(=O)O)cn(C3CC3)c12` [Compound 7, 7-[4-(2-Amino-1-chloro-ethylidene)-piperidin-1-yl]-1-cyclopropyl-6-fluoro-8-methoxy-4-oxo-1,4-dihydro-quinoline-3-carboxylic Acid]: the MIC is 0.015 µg/mL (≈ 0.0344 µM) under setting [1]; 0.06 µg/mL (≈ 0.138 µM) under setting [2]; 0.06 µg/mL (≈ 0.138 µM) under setting [3]; 0.12 µg/mL (≈ 0.275 µM) under setting [4]; 0.12 µg/mL (≈ 0.275 µM) under setting [5].

Consider `CC1COc2c(N3CCC(=C(F)CN)CC3)c(F)cc3c(=O)c(C(=O)O)cn1c23` (centres unmarked) [Compound 8, 9-[4-(2-Amino-1-fluoro-ethylidene)-piperidin-1-yl]-8-fluoro-3-methyl-6-oxo-2,3-dihydro-6H-1-oxa-3a-aza-phenalene-5-carboxylic acid], for which the MIC under setting [1] was 0.25 µg/mL (≈ 0.617 µM); the MIC under setting [2] is 0.5 µg/mL (≈ 1.23 µM); the MIC under setting [3] was 2 µg/mL (≈ 4.93 µM); the MIC under setting [4] stood at 8 µg/mL (≈ 19.7 µM); inhibition of growth under setting [5] (MIC) required 8 µg/mL (≈ 19.7 µM).

On to `CC(CN)=C1CCN(c2c(F)cc3c(=O)c(C(=O)O)cn4c3c2OCC4C)CC1` (centres unmarked) [Compound 9, 9-[4-(2-Amino-1-methyl-ethylidene)-piperidin-1-yl]-8-fluoro-3-methyl-6-oxo-2,3-dihydro-6H-1-oxa-3a-aza-phenalene-5-carboxylic acid], for which the MIC by setting is: under setting [1], 0.5 µg/mL (≈ 1.25 µM); under setting [2], 1 µg/mL (≈ 2.49 µM); under setting [3], 4 µg/mL (≈ 9.96 µM); under setting [4], above 16 µg/mL; under setting [5], above 16 µg/mL.

For `COc1c(N2CCC(=C(F)CN)CC2)ccc2c(=O)c(C(=O)O)cn(C3CC3)c12` [Compound 10, 7-[4-(2-Amino-1-fluoro-ethylidene)-piperidin-1-yl]-1-cyclopropyl-8-methoxy-4-oxo-1,4-dihydro-quinoline-3-carboxylic acid], the MIC turned out to be 0.03 µg/mL (≈ 0.0747 µM) under setting [1], 0.12 µg/mL (≈ 0.299 µM) under setting [2], 0.5 µg/mL (≈ 1.25 µM) under setting [4] and 1 µg/mL (≈ 2.49 µM) under setting [5].

In the case of `COc1c(N2CC/C(=C(/F)CN)C(C)C2)c(F)cc2c(=O)c(C(=O)O)cn(C3CC3)c12` (centres unmarked) [Compound 11, (Z)-7-[4-(2-Amino-1-fluoro-ethylidene)-3-methyl-piperidin-1-yl]-1-cyclopropyl-6-fluoro-8-methoxy-4-oxo-1,4-dihydro-quinoline-3-carboxylic acid], the MIC is 0.03 µg/mL (≈ 0.0692 µM) under setting [1], 0.12 µg/mL (≈ 0.277 µM) under setting [2], 0.5 µg/mL (≈ 1.15 µM) under setting [4] and 1 µg/mL (≈ 2.31 µM) under setting [5].

Molecule `COc1c(N2CCC(=C(F)CN)CC2)c(F)cc2c(=O)c(C(=O)O)cn(C3CC3)c12` [Compound 12, (E)-7-[4-(2-Amino-1-fluoro-ethylidene)-piperidin-1-yl]-1-cyclopropyl-7-6-fluoro-8-methoxy-4-oxo-1,4-dihydro-quinoline-3-carboxylic acid] came in with an MIC (Organism A: Staphylococcus aureus OC4172) of 0.12 µg/mL (≈ 0.286 µM); an MIC (Organism B: fluoroquinolone-resistant clinical isolate of Streptococcus pneumoniae (QRDR amino acid substitutions)) of 2 µg/mL (≈ 4.77 µM); an MIC (Organism C: fluoroquinolone-resistant clinical isolate of Streptococcus pneumoniae (QRDR amino acid substitutions)) of 4 µg/mL (≈ 9.54 µM); an MIC (Organism D: fluoroquinolone-resistant clinical isolate of Streptococcus pneumoniae (QRDR amino acid substitutions)) of 4 µg/mL (≈ 9.54 µM); an MIC (Organism E: Streptococcus pneumoniae ATCC 49619) of 0.5 µg/mL (≈ 1.19 µM).

Turning to `COc1c(N2CC/C(=C(\Cl)CN)C2)c(F)cc2c(=O)c(C(=O)O)cn(C3CC3)c12` [Compound 14, (E)-7-[3-(2-Amino-1-chloro-ethylidene)-pyrrolidin-1-yl]-1-cyclopropyl-6-fluoro-8-methoxy-4-oxo-1,4-dihydro-quinoline-3-carboxylic acid], the MIC was found to be 0.03 µg/mL (≈ 0.0711 µM) under setting [1]; 0.25 µg/mL (≈ 0.593 µM) under setting [2]; 2 µg/mL (≈ 4.74 µM) under setting [3]; 1 µg/mL (≈ 2.37 µM) under setting [4]; 1 µg/mL (≈ 2.37 µM) under setting [5].

For `NCC=C1CCN(c2nc3c(cc2F)c(=O)c(C(=O)O)cn3C2CC2)CC1` [Compound 59, 7-[4-(2-Amino-ethylidene)-piperidin-1-yl]-1-cyclopropyl-6-fluoro-4-oxo-1,4-dihydro-[1,8]naphthyridine-3-carboxylic acid], the MIC reads like this: under setting [1], 0.06 µg/mL (≈ 0.161 µM); under setting [2], 0.5 µg/mL (≈ 1.34 µM); under setting [3], 8 µg/mL (≈ 21.5 µM); under setting [4], 8 µg/mL (≈ 21.5 µM).

For `NCC=C1CCN(c2nc3c(cc2F)c(=O)c(C(=O)O)cn3C2CC2)CC1O` (centres unmarked) [Compound 60, 7-[4-(2-Amino-ethylidene)-3-hydroxy-piperidin-1-yl]-1-cyclopropyl-6-fluoro-4-oxo-1,4-dihydro-[1,8]naphthyridine-3-carboxylic acid], the MIC runs as follows: under setting [1], 2 µg/mL (≈ 5.15 µM); under setting [2], 16 µg/mL (≈ 41.2 µM); under setting [4], 16 µg/mL (≈ 41.2 µM).

On to `CON=C1CN(c2nc3c(cc2F)c(=O)c(C(=O)O)cn3C2CC2)CCC1=CCN` [Compound 61, 7-[4-(2-Amino-ethylidene)-3-methoxyimino-piperidin-1-yl]-1-cyclopropyl-6-fluoro-4-oxo-1,4-dihydro-[1,8]naphthyridine-3-carboxylic acid], for which the MIC was found to be 0.12 µg/mL (≈ 0.289 µM) under setting [1], 1 µg/mL (≈ 2.41 µM) under setting [2] and 16 µg/mL (≈ 38.5 µM) under setting [4].

As to `CC(CN)=C1CCN(c2nc3c(cc2F)c(=O)c(C(=O)O)cn3C2CC2)CC1O` (centres unmarked) [Compound 62, 7-[4-(2-Amino-1-methyl-ethylidene)-3-hydroxy-piperidin-1-yl]-1-cyclopropyl-6-fluoro-4-oxo-1,4-dihydro-[1,8]naphthyridine-3-carboxylic acid], the MIC is 2 µg/mL (≈ 4.97 µM) under setting [1], 8 µg/mL (≈ 19.9 µM) under setting [2], above 16 µg/mL under setting [3] and above 16 µg/mL under setting [4].

On to `CC(CN)=C1CCN(c2cc3c(cc2F)c(=O)c(C(=O)O)cn3C2CC2)CC1` [Compound 64, 7-[4-(2-Amino-1-methyl-ethylidene)-piperidin-1-yl]-1-cyclopropyl-6-fluoro-4-oxo-1,4-dihydro-quinoline-3-carboxylic acid], for which the MIC reads like this: under setting [1], 0.12 µg/mL (≈ 0.311 µM); under setting [2], 1 µg/mL (≈ 2.59 µM); under setting [3], 8 µg/mL (≈ 20.8 µM); under setting [4], 2 µg/mL (≈ 5.19 µM); under setting [5], 8 µg/mL (≈ 20.8 µM).

`NCC(Cl)=C1CCN(c2cc3c(cc2F)c(=O)c(C(=O)O)cn3C2CC2)CC1` [Compound 65, 7-[4-(2-Amino-1-chloro-ethylidene)-piperidin-1-yl]-1-1-cyclopropyl-6-fluoro-4-oxo-1,4-dihydro-quinoline-3-carboxylic acid]: the MIC stood at 0.03 µg/mL (≈ 0.0739 µM) under setting [1], 0.12 µg/mL (≈ 0.296 µM) under setting [2], 0.5 µg/mL (≈ 1.23 µM) under setting [4] and 1 µg/mL (≈ 2.46 µM) under setting [5].

For orientation: MIC means the least concentration at which growth counts as inhibited.

The record behind these values is patent US20090156577A1, “7-AMINO ALKYLIDENYL-HETEROCYCLIC QUINOLONES AND NAPHTHYRIDONES” (priority 2004, published 2009).
